We go through nine molecules from article PMC7765930, “Antiproliferative Phenanthrenes from Juncus tenuis: Isolation and Diversity-Oriented Semisynthetic Modification” (Molecules, 2020).

Structures are written as SMILES. Where two headings read alike, the source gives them in different places.

Test [1] deals with KCR, drug-resistant subline of the human breast cancer MCF-7. The test can be described thus: MTT antiproliferative assay, KCR. It counts as cell-based. The following applies: 100–0.19 μM, read-out: IC50 (µM) ± SD KCR. On the procedure:
(§1) Breast cancer cell line MCF-7 (ATCC® HTB-22) and the drug-resistant subline of the human breast cancer MCF-7 (ECACC 86012803; KCR) were purchased from LGC Promochem (Teddington, UK). Both cell lines were cultured in Eagle’s Minimal Essential Medium (EMEM, containing 4.5 g/L glucose) supplemented with a non-essential amino acid mixture, a selection of vitamins, and 10% heat-inactivated fetal bovine serum. In every third passage, 0.56 µg/mL doxorubicin was added to the medium, in order to maintain the ABCB1 (P-glycoprotein) expression in KCR cells. A2780 human ovarian cancer cell line (ECACC, European Collection of Authentical Cell Culture, Sigma Cat.no. 93112519) was purchased from Merck KGaA (Darmstadt, Germany). The cisplatin-resistant human ovarian cancer cell line A2780cis (ECACC European Collection of Authentical Cell Culture, Sigma Cat.no. 93112517) was purchased from Merck KGaA (Darmstadt, Germany). The human ovarian cancer cell lines were cultured in RPMI 1640 medium supplemented with 10% heat-inactivated fetal bovine serum. […] HeLa (ATCC® CCL-2™) human cervix carcinoma cell line was purchased from LGC Promochem (Teddington, UK). The cells were cultured in Eagle’s Minimal Essential Medium (EMEM, containing 4.5 g/L glucose) supplemented with a non-essential amino acid mixture, a selection of vitamins, and 10% heat-inactivated fetal bovine serum. MRC-5 human embryonal lung fibroblast cell line (ATCC® CCL-171) was purchased from LGC Promochem, Teddington, UK. The cell line was cultured in Eagle’s Minimal Essential Medium (EMEM, containing 4.5 g/L glucose) supplemented with a non-essential amino acid mixture, a selection of vitamins, and 10% heat-inactivated fetal bovine serum. HTB-26 breast adenocarcinoma cell line was purchased from LGC Promochem, Teddington, UK. The cell line was cultured in RPMI 1640 medium supplemented with 10% heat-inactivated fetal bovine serum. T-47D (ATCC® HTB-133™) ductal carcinoma cell line was purchased from LGC Promochem, Teddington, UK. The cells were cultured in RPMI 1640 medium supplemented with 10% heat-inactivated fetal bovine serum, 2 mM L-glutamine, 1 mM Na-pyruvate, and 100 mM Hepes. All of the cells were incubated at 37 °C, in a 5% CO2 and 95% air atmosphere.
(§2) The antiproliferative effect of the compounds was determined on human breast (MCF-7, KCR, T47D, and HTB-26), cervical (HeLa), and ovarian (A2780 and A2780cis) cancer cells, and on MRC-5 (human embryonic lung fibroblast) cell lines. The adherent cells were cultured in 96-well flat-bottomed microtiter plates, using EMEM supplemented with 10% heat-inactivated fetal bovine serum or RPMI 1640 supplemented with 10% heat-inactivated fetal bovine serum, respectively. The density of the cells was adjusted to 6 × 10^3 cells in 100 μL per well, the cells were seeded for 24 h at 37 °C, with 5% CO2, and then the medium was removed from the plates, and fresh medium (100 μL per well) was added to the cells. The effects of increasing concentrations of compounds on cell proliferation were tested in 96-well flat-bottomed microtiter plates. The compounds were diluted in the appropriate medium; the dilutions of compounds were performed in separate plates and then added to the cells. The starting concentration of the compounds was 100 μM, and two-fold serial dilution was performed (concentration range: 100–0.19 μM). The culture plates were incubated at 37 °C for 72 h; at the end of the incubation period, 20 μL of MTT (thiazolyl blue tetrazolium bromide, Sigma) solution (from a stock solution of 5 mg/mL) was added to each well. After incubation at 37 °C for 4 h, 100 μL of sodium dodecyl sulfate (SDS) (Sigma) solution (10% in 0.01 M HCI) was added to each well, and the plates were further incubated, at 37 °C, overnight. Cell growth was determined by measuring the optical density (OD) at 540/630 nm, with a Multiscan EX ELISA reader (Thermo Labsystems, Cheshire, WA, USA). […]

Test [2] has as its system T-47D ductal carcinoma cell line. The test can be described thus: MTT antiproliferative assay, T47D. The test is classed as cell-based, human. The following applies: 72 h, 100–0.19 μM, read-out: IC50 (µM) ± SD T47D. On the procedure:
as §1, §2
(In general: Formazan colour is commonly taken as a measure of viable cells.)

Test [3] has as its system Breast cancer cell line MCF-7. Description: MTT antiproliferative assay, MCF-7. The following applies: for IC50: MTT assay, 72 h, 100–0.19 μM, read-out: IC50 (µM) ± SD MCF-7. The test is classed as cell-based, human. On the procedure:
as §1, §2

In test [4] the test system is cisplatin-resistant human ovarian cancer cell line A2780cis. Description: MTT antiproliferative assay, A2780cis. The following applies: 72 h, 100–0.19 μM, read-out: IC50 (µM) ± SD A2780cis. The test is classed as cell-based. The method, then: as §1, §2
In test [5] the test system is HeLa human cervix carcinoma cell line. Description: MTT antiproliferative assay, HeLa. It counts as cell-based. The following applies: 72 h, 100–0.19 μM, read-out: IC50 (µM) ± SD HeLa. The method, then:
as §1, §2

Test [6] concerns HTB-26 breast adenocarcinoma cell line. The test can be described thus: MTT antiproliferative assay, HTB-26. It counts as cell-based, human. The following applies: 100–0.19 μM, read-out: IC50 (µM) ± SD HTB-26. The method, then:
as §1, §2

Test [7] concerns A2780 human ovarian cancer cell line. The test can be described thus: MTT antiproliferative assay, A2780. The test is classed as cell-based. The following applies: 100–0.19 μM, read-out: IC50 (µM) ± SD A2780. The method, then: as §1, §2

`N.N.[Cl][Pt][Cl]` [Cisplatin, cisplatin, reference compound]: the IC50 amounted to 6.7 ± 0.4 µM in test [1] (72 h); 5.9 ± 0.1 µM in test [2]; 1.4 ± 1.1 µM in test [3]; 7.3 ± 0.2 µM in test [4]; 2.3 ± 0.1 µM in test [5]; 20.1 ± 2.3 µM in test [6] (72 h). Also, the IC50 in test [7] (72 h) is 3.6 ± 0.3 µM.

As for `C=CC1=C(C)C(=O)C=C2CCC3=C(C=CC(=O)C3(C)OC)C21OC` (stereo not shown) [Compound 1b], the IC50 is greater than 100 µM in test [1] (Homo sapiens, MCF7, 72 h); 36.5 ± 1 µM in test [2] (Homo sapiens, T47D); 52.1 ± 4.8 µM in test [3] (Homo sapiens, MCF7, 72 h); 88.2 ± 3.1 µM in test [4] (Homo sapiens, A2780cis); greater than 100 µM in test [5] (Homo sapiens, HeLa); 74.3 ± 3.6 µM in test [6] (Homo sapiens, HTB26, 72 h). Also, the IC50 in test [7] (Homo sapiens, A2780, 72 h) came out at 80.3 ± 3 µM.

Regarding `C=CC1=C(C)C(=O)C=C2CCC3=C(C=CC(=O)C3(C)OCC)C21OCC` (stereo not shown) [Compound 2a], the IC50 in test [1] (72 h) is greater than 100 µM; in test [2] (Homo sapiens, T47D), 56.3 ± 3.4 µM; in test [3] (Homo sapiens, MCF7, 72 h), 80.5 ± 3.5 µM; in test [4] (Homo sapiens, A2780cis) it was 62.9 ± 1.7 µM; in test [5] (Homo sapiens, HeLa) it was 94.7 ± 3.4 µM; in test [6] (72 h) it was 94.3 ± 2 µM. For the same molecule, in test [7] (Homo sapiens, A2780, 72 h), the IC50 turned out to be 66 ± 4.4 µM.

`C=CC1=C(C)C(=O)C=C2CCC3=C(C=CC(=O)C3(C)OCC)C21OCC` (stereo not shown) [Compound 2b]: the IC50 in test [1] (72 h) was 44.2 ± 2.6 µM; in test [2], 30.3 ± 2.5 µM; in test [3], 41 ± 0.9 µM; in test [4], 38 ± 4.6 µM; in test [5], 61.9 ± 0.3 µM; in test [6] (72 h) it was 45.8 ± 3.2 µM. Besides, the half-maximal inhibitory concentration (IC50) in test [7] (72 h) was 39.4 ± 3.1 µM.

As for `C=CC1=CC(=O)C=C2CCC3=C(C=CC(=O)C3(C)OC)C12OC` (stereo not shown) [Compound 3], the half-inhibitory concentration (IC50) in test [1] (Homo sapiens, MCF7, 72 h) was found to be 18.9 ± 1.4 µM; in test [2] (Homo sapiens, T47D) it was 7 ± 1 µM; in test [3] (Homo sapiens, MCF7, 72 h), 5.8 ± 0.2 µM; in test [4] (Homo sapiens, A2780cis), 10.9 ± 2.2 µM; in test [5] (Homo sapiens, HeLa), 12.9 ± 0.4 µM; in test [6] (Homo sapiens, HTB26, 72 h), 10.9 ± 0.9 µM. Further, the concentration for half-maximal inhibition (IC50) in test [7] (Homo sapiens, A2780, 72 h) stood at 8.6 ± 0.5 µM. Also, in test [3] (ratio of IC50 MRC-5 / MCF-7), the “selectivity against MCF-7 cells over non-tumoral MRC-5 cells” value is “ca. 2.1 fold”.

`C=CC1=CC(=O)C=C2CCC3=C(C=CC(=O)C3(C)OCC)C12OCC` (stereo not shown) [Compound 4a]: the IC50 in test [1] (Homo sapiens, MCF7, 72 h) turned out to be 23.5 ± 0.8 µM; in test [2] (Homo sapiens, T47D), 11.6 ± 0.3 µM; in test [3] (Homo sapiens, MCF7, 72 h), 11.7 ± 0.7 µM; in test [4] (Homo sapiens, A2780cis), 22.5 ± 0.2 µM; in test [5] (Homo sapiens, HeLa), 24.4 ± 0.8 µM; in test [6] (Homo sapiens, HTB26, 72 h) it was 16.1 ± 0.2 µM. Further, the IC50 in test [7] (Homo sapiens, A2780, 72 h) came out at 25.2 ± 1.8 µM.

On to `C=CC1=CC(=O)C=C2CCC3=C(C=CC(=O)C3(C)OCC)C12OCC` (stereo not shown) [Compound 4b], for which the concentration for half-maximal inhibition (IC50) in test [1] (72 h) is 29.4 ± 0.9 µM; in test [2], 14.2 ± 0.6 µM; in test [3] it was 10.2 ± 0.1 µM; in test [4] it was 22.1 ± 1.6 µM; in test [5], 35 ± 1.5 µM; in test [6] (72 h), 20.1 ± 1.1 µM. Besides, in test [7] (72 h), the half-maximal inhibitory concentration (IC50) was found to be 22 ± 2 µM.

On to `C=Cc1cc(O)cc2c1-c1ccc(O)c(C)c1CC2` [effusol], for which the IC50 in test [1] (Homo sapiens, MCF7, 72 h) turned out to be 39.3 ± 1.6 µM; in test [2] (Homo sapiens, T47D) it was 24.6 ± 1.9 µM; in test [3] (Homo sapiens, MCF7, 72 h), 48.6 ± 3.4 µM; in test [4] (Homo sapiens, A2780cis) it was 30.4 ± 0.4 µM; in test [5] (Homo sapiens, HeLa), 2.3 ± 0.7 µM; in test [6] (Homo sapiens, HTB26, 72 h), 57 ± 2.7 µM. Also, the concentration for half-maximal inhibition (IC50) in test [7] (Homo sapiens, A2780, 72 h) came to 33.1 ± 3.1 µM.

Turning to `C=Cc1c(C)c(O)cc2c1-c1ccc(O)c(C)c1CC2` [juncusol], the 50% inhibitory concentration (IC50) in test [1] (Homo sapiens, MCF7, 72 h) came out at 35.8 ± 1.7 µM; in test [2] (Homo sapiens, T47D) it was 25 ± 0.4 µM; in test [3] (Homo sapiens, MCF7, 72 h), 37.1 ± 1.1 µM; in test [4] (Homo sapiens, A2780cis) it was 37.1 ± 2.8 µM; in test [5] (Homo sapiens, HeLa) it was 0.5 µM; in test [6] (Homo sapiens, HTB26, 72 h), 41.7 ± 3.5 µM. Also, the half-inhibitory concentration (IC50) in test [7] (Homo sapiens, A2780, 72 h) was 23.8 ± 1.3 µM.

In general, IC50 refers to the point on the concentration scale where inhibition reaches its midpoint.
